Values after ≈ are worked out from the molar mass of the structure shown.
What was measured:
[1] = Cytotoxicity against human HeLa cells expressing CD4 and CCR5 assessed as cell viability after 6 days by XTT assay; type: cell-based
[2] = system: Human immunodeficiency virus 1; assay: Antiviral activity against HIV1 JRFL infected in human HeLa cells expressing CD4 and CCR5 after 3 days by luciferase reporter gene assay; type: functional, organism-based; details: Human immunodeficiency virus 1, JRFL, 72 h
[3] = Solubility of the compound in amorphous form at pH 6.5; type: physicochemical; details: buffer
[4] = AUC in rat at 5 mg/kg, po; type: ADME, organism-based; parameters: dose 5 mg/kg, route oral; details: plasma
[5] = Clearance in rat at 1 mg/kg, iv; type: ADME, organism-based; parameters: dose 1 mg/kg, route intravenous; details: in vivo
[6] = Oral bioavailability in rat at 5 mg/kg; type: ADME, organism-based; details: in vivo
[7] = Therapeutic index, ratio of CC50 for human HeLa cells expressing CD4 and CCR5 to EC50 for HIV1 JRFL infected in human HeLa cells expressing CD4 and CCR5; type: cell-based; details: read-out: Ratio CC50/EC50

SMILES	CC50 at 144 h [1] [nM]	EC50 [2] [nM]	other results
CC(=O)c1ncnc2c(C(=O)C(=O)N3CCN(C(=O)c4ccccc4)CC3)c[nH]c12	> 300000	18	–
O=C(C(=O)N1CCN(C(=O)c2ccccc2)CC1)c1c[nH]c2c(-c3ccnnc3)ncnc12	> 300000	5.2	–
Cc1cc(-c2ncnc3c(C(=O)C(=O)N4CCN(C(=O)c5ccccc5)CC4)c[nH]c23)on1	177000	0.88	–
N#Cc1ncnc2c(C(=O)C(=O)N3CCN(C(=O)c4ccccc4)CC3)c[nH]c12	> 300000	44	–
COc1ccc(-c2ccn(-c3ncnc4c(C(=O)C(=O)N5CCN(C(=O)c6ccccc6)CC5)c[nH]c34)n2)cc1	–	0.24	solubility [3]: 1 µg/mL (≈ 1.87 µM)
O=C(C(=O)N1CCN(C(=O)c2ccccc2)CC1)c1c[nH]c2c(-n3ccc(-c4ccccc4)n3)ncnc12	–	0.28	solubility [3]: 1 µg/mL (≈ 1.98 µM)
O=C(C(=O)N1CCN(C(=O)c2ccccc2)CC1)c1c[nH]c2c(-c3ccncc3)ncnc12	> 300000	12	–
Cc1ccn(-c2ncnc3c(C(=O)C(=O)N4CCN(C(=O)c5ccccc5)CC4)c[nH]c23)n1	> 300000	0.15	AUC [4]: 17.8 µM·h; clearance [5]: 4.8 mL/min/kg; bioavailability [6]: 45%; solubility [3]: 8 µg/mL (≈ 18 µM)
O=C(C(=O)N1CCN(C(=O)c2ccccc2)CC1)c1c[nH]c2c(-n3cncn3)ncnc12	> 300000	0.1	AUC [4]: 0.83 µM·h; clearance [5]: 35 mL/min/kg; bioavailability [6]: 15%
Cc1cnn(-c2ncnc3c(C(=O)C(=O)N4CCN(C(=O)c5ccccc5)CC4)c[nH]c23)c1	> 300000	1.1	–
CN(C)C(=O)c1ccn(-c2ncnc3c(C(=O)C(=O)N4CCN(C(=O)c5ccccc5)CC4)c[nH]c23)n1	–	2	–
CNCCCCNC(=O)c1ccn(-c2ncnc3c(C(=O)C(=O)N4CCN(C(=O)c5ccccc5)CC4)c[nH]c23)n1	–	4.8	solubility [3]: 1730 µg/mL (≈ 3100 µM)
COc1ncnc2c(C(=O)C(=O)N3CCN(C(=O)c4ccccc4)CC3)c[nH]c12	> 300000	4.1	–
O=C(C(=O)N1CCN(C(=O)c2ccccc2)CC1)c1c[nH]c2c(-n3nccn3)ncnc12	> 150000	11	–
O=C(C(=O)N1CCN(C(=O)c2ccccc2)CC1)c1c[nH]c2c(-c3cccnc3)ncnc12	> 300000	1.3	–
O=C(C(=O)N1CCN(C(=O)c2ccccc2)CC1)c1c[nH]c2c(-n3ccc(-c4ccccn4)n3)ncnc12	–	0.15	solubility [3]: 8 µg/mL (≈ 15.8 µM)
O=C(C(=O)N1CCN(C(=O)c2ccccc2)CC1)c1c[nH]c2c(-c3ccccn3)ncnc12	6000	0.34	selectivity ratio [7]: > 15000
O=C(C(=O)N1CCN(C(=O)c2ccccc2)CC1)c1c[nH]c2c(-c3cc[nH]n3)ncnc12	> 300000	0.31	–
CN1CCN(c2ncnc3c(C(=O)C(=O)N4CCN(C(=O)c5ccccc5)CC4)c[nH]c23)CC1	> 300000	> 5000	–
CCOc1ncnc2c(C(=O)C(=O)N3CCN(C(=O)c4ccccc4)CC3)c[nH]c12	> 150000	12	–
O=C(C(=O)N1CCN(C(=O)c2ccccc2)CC1)c1c[nH]c2c(Cl)ncnc12	> 300000	11	–
O=C(O)c1ccn(-c2ncnc3c(C(=O)C(=O)N4CCN(C(=O)c5ccccc5)CC4)c[nH]c23)n1	–	0.76	solubility [3]: 1070 µg/mL (≈ 2260 µM)
O=C(C(=O)N1CCN(C(=O)c2ccccc2)CC1)c1c[nH]c2c(-c3cncnc3)ncnc12	> 300000	2.7	–
O=C(C(=O)N1CCN(C(=O)c2ccccc2)CC1)c1c[nH]c2c(-n3ccc(-c4cccc(C(F)(F)F)c4)n3)ncnc12	–	0.37	solubility [3]: 60 µg/mL (≈ 105 µM)
O=C(C(=O)N1CCN(C(=O)c2ccccc2)CC1)c1c[nH]c2c(-c3cnccn3)ncnc12	78000	0.25	selectivity ratio [7]: > 15000
Cc1ncn(-c2ncnc3c(C(=O)C(=O)N4CCN(C(=O)c5ccccc5)CC4)c[nH]c23)n1	> 150000	0.36	AUC [4]: 4.9 µM·h; clearance [5]: 7.6 mL/min/kg; bioavailability [6]: 19%
COc1ccccc1-c1ccn(-c2ncnc3c(C(=O)C(=O)N4CCN(C(=O)c5ccccc5)CC4)c[nH]c23)n1	–	0.36	solubility [3]: 4 µg/mL (≈ 7.47 µM)
O=C(C(=O)N1CCN(C(=O)c2ccccc2)CC1)c1c[nH]c2c(-n3ccc(-c4ccc(F)cc4)n3)ncnc12	–	< 0.16	–

Reference: ChEMBL document CHEMBL2311313, “Inhibitors of HIV-1 attachment. Part 11: the discovery and structure-activity relationships associated with 4,6-diazaindole cores” (Bioorg Med Chem Lett, 2013)
